The conditions of series [1]: rats, intraperitoneal injection; cited from earlier work.
For series [2] the following is noted: mice, intraperitoneal injection; cited from earlier work.
Another series has as its system MCF10 and MCF7 cells. Set-up: method as in PMID 28605571. As to conditions: cited from earlier work.
Another series deals with MTs. Set-up: method as in PMID 15057285, PMID 29523799. As to conditions: competitive binding titrations; cited from earlier work.
Series [3] addresses T1, preformed microtubules (polymerized porcine brain tubulin) (Sus scrofa, UniProt P02550+P02554).
T1 construct: For depolymerized porcine brain tubulin the calorimeter was set at 4 °C; purchased Cytoskeleton Inc., (Denver. CO); host or cells: porcine brain (tissue-purified)
Briefly: Isothermal titration calorimetry, preformed microtubules at 37 °C. The class given is binding. The following applies: ITC. How it is done:
(§1) ITC experiments were performed using a Microcal VP-ITC (Malvern) instrument. For polymerized porcine brain tubulin the calorimeter was set at 37 °C. For depolymerized porcine brain tubulin the calorimeter was set at 4 °C. Tubulin concentration was kept below 3 mg mL^−1 to ensure that minimal microtubule formation before any polymerization assays were performed in preparation for ITC experiments. Reverse titrations were used in all ITC experiments due to the low solubility of RPC2 in aqueous solutions. A typical ITC experiment involved fourteen 20 μL injections of tubulin (∼30 μM heterodimers, or 2 mg mL^−1) into a 1.45 mL cell of ligand solution. The ITC thermograms were corrected for titrate and titrant dilution effects by performing the appropriate blank experiments and correcting the observed heats by subtracting the heats of dilution. Corrected ITC titrations were fit with a nonlinear regression algorithm using CHASM, an ITC data analysis program developed in the Lewis laboratory to determine the thermodynamic parameters, including the association constant (K) and changes in free energy (ΔG), enthalpy (ΔH), and entropy (−TΔS).
Isothermal titration calorimetry (ITC) was used to measure the binding thermodynamics of RPC2 with tubulin and MTs. Reverse titrations (protein introduced into solutions with a fixed ligand concentration) were done as the poor solubility of RPC2 limited its concentration range. […] Experiments were either performed starting at 4 °C or 37 °C to obtain a population of tubulin in the free, unpolymerized state (4 °C) or polymerized state as MTs (37 °C), as these two structures present a different collection of binding sites to the ligand.

A further series deals with porcine brain tubulin. Briefly: Isothermal titration calorimetry, free (unpolymerized) tubulin at 4 °C. The following applies: association constant, ITC. The class given is binding. As to the method: as §1
Isothermal titration calorimetry (ITC) was used to measure the binding thermodynamics of RPC2 with tubulin and MTs. […]
(In ITC the heat of successive injections is recorded.)

The subject of series [4] is H358. Briefly: Cytotoxicity IC50 against H358 cells. It is filed as cell-based. As to conditions: Homo sapiens, NCI-H358.
Series [5] deals with microtubules formed from porcine brain tubulin. Briefly: Electron microscopy of polymerized tubulin. As to conditions: 10 μM. The class given is biochemical. The source says: Aliquots of polymerized tubulin were placed on 300-mesh carbon-coated, Formvar-treated copper grids and immediately stained with 5–10 successively applied drops of 1% (w/v) uranyl acetate. Excess stain was wicked from the grids with torn filter paper. The grids were examined in a Hitachi H-9500 High-resolution Transmission Electron Microscope.

A further series deals with HUVEC. As to conditions: cited from earlier work.
A further series has as its system MCF10. As to conditions: cited from earlier work.
A further series deals with MCF7. Briefly: Cytotoxicity IC50 against MCF7 cells. The class given is cell-based. As to conditions: Homo sapiens.
The test system of series [6] is free tubulin in H358 cells. Briefly: Western blot of free tubulin in cytosol of H358 cells. It is filed as cell-based, human. As to conditions: PTX 0.1 μM or RPC2 1.7 μM, 12 h. As to the method: […] The confluent 60 mm dishes of cells were washed 3 times with 37 °C PBS, then lysed in microtubule stabilization buffer (Tris–HCl pH 6.8, 20 mM, NaCl 140 mM, MgCl2 1 mM, NP40 0.5%, EGTA 2 mM, 10 μM of Taxol) and protease inhibitors (100× Protease Inhibitor Cocktail (PIC) and 100× phenylmethane sulfonyl fluoride (PMSF)). Then, the cells were scraped, mixed and quickly transfer to microtubes. These samples were then spun at 10 000 rpm for 20 minutes, the supernatants containing free tubulin were collected and a bicinchoninic acid (BCA) protein assay was performed to check the protein quantity. Equal amounts of protein sample were prepared in Laemmli sample buffer and were boiled for 5 min at 95 °C. Proteins were resolved on a 12% polyacrylamide gel. The proteins were transferred to a nitrocellulose membrane for 1.5 h at 100 V. The nitrocellulose membrane was stained for 1 min with Ponceau Red to verify the efficiency of the transfer. Then, the membrane was blocked in 5% skim milk for 1 h at room temperature and incubated with primary alpha tubulin monoclonal antibody in 5% BSA overnight at 4 °C. The membrane was washed 3 times with TBST buffer before being probed with secondary antibodies conjugated to HRP, then the membrane was incubated for 1 h at room temperature before it was washed 3 times again with TBST buffer. […]
In general terms: Immunoblotting shows a protein as a band on a membrane.

In series [7] the test system is MCF7 and MCF10a cells expressing GFP-EB3. Briefly: Spinning disk confocal imaging of GFP-EB3 comets in live cells. The class given is cell-based, human. As to conditions: IC50 dose. As to the method:
MCF7 cells were cultured in phenol-red DMEM media (HyClone™, GE healthcare) supplemented with 10% FBS and penicillin/streptomycin at 37 °C in 5% CO2. MCF10A cells were cultured in low-calcium phenol-red DMEM/F12 (HyClone™, GE healthcare) supplemented with final concentration of 5% horse serum, 20 ng mL^−1 EGF, […] hydrocortisone, 100 ng mL^−1 Cholera toxin, 10 μg mL^−1 insulin, and 1% pen-strep. For live imaging, 500 000 cells per mL of both MCF7 and MCF10A cells were transfected with the cDNA (EGFP-EB3), and then cultured on 10 μg mL^−1 fibronectin coated 35 mm glass-bottom dishes (Cellvis, cat#: D35-20-1.5-N). Transfection of EGFP-EB3 was performed using a Lonza Nucleofector Device with Ingenio electroporation kit (Cat# MIR 50112, Mirus). Cells were treated with RPC2 18–24 hours post-transfection to allow time for cDNA expression. To minimize photobleaching, phenol-free DMEM was supplemented with 10% FBS and 25 mM HEPES, pH = 7.2 replaced the original media and was administered before RPC2 treatment. Time-lapse imaging was obtained before, 30 min, 1 h, 2 h, and 3 h after RPC2 treatment for both MCF7 and MCF10A. Images were obtained on a Zeiss Axiovert (Jena, Germany) microscope with a Zeiss alpha Plan-Fluar 100×, 1.45 NA oil objective and a spinning disk confocal scan head (Yokogawa CSU-X1, Tokyo, Japan). […]

Series [8] relates to mouse fibroblast cells. Set-up: method as in PMID 20059301. As to conditions: mouse fibroblast cell line; cited from earlier work.
Series [9] deals with mouse fibroblast cells. Set-up: method as in PMID 6103535. As to conditions: PTX 0.25 μM, cited from earlier work.
Series [10] relates to H358. The following applies: cited from earlier work.

In general, IC50 refers to the concentration at which inhibition is half-maximal.

Where two headings read alike, the source gives them in different places.

T1 sequence (P02550 whole entry): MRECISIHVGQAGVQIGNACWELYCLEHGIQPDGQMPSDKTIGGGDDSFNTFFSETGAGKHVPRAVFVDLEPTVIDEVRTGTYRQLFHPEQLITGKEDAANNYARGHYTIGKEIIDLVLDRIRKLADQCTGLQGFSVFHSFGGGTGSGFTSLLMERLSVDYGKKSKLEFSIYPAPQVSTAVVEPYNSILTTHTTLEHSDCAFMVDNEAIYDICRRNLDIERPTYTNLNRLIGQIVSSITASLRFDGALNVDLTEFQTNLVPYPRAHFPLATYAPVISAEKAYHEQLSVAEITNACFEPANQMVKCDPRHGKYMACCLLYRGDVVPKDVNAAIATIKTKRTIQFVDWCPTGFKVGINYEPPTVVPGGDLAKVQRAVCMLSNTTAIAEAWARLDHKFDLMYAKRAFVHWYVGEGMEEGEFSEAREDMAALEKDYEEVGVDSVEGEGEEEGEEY
T1 sequence (P02554 whole entry): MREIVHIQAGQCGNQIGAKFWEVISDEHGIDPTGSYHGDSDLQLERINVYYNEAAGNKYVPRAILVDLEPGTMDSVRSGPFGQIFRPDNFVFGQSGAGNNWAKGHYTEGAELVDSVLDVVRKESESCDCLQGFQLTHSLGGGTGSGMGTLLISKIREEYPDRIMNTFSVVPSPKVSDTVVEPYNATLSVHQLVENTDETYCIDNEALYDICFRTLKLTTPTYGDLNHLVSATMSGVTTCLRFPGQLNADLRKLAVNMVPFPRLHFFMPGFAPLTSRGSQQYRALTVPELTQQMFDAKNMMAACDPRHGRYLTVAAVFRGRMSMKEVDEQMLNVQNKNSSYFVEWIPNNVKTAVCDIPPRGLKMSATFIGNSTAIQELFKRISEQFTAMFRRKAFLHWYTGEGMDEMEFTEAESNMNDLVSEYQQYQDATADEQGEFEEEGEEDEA

Turning to `[106Ru+2].[O-][Cl+3]([O-])([O-])[O-].[O-][Cl+3]([O-])([O-])[O-].c1cnc2c(c1)ccc1cccnc12.c1cnc2c(c1)ccc1cccnc12.c1cnc2c(c1)ccc1cccnc12` [[^106Ru(phen)3][ClO4]2], the “time to excretion of the intact cation in the urine” value in [1] and in [2] was “about 12 h” throughout.
For the compound [(DIP)2Ru(tatpp)Ru(DIP)2]^2+, the “selectivity index (SI = IC50 MCF10/IC50 MCF7)” value in the series with MCF10 and MCF7 cells is listed as 11.
As for `CC(=O)O[C@@]12CO[C@@H]1C[C@H](O)[C@@]1(C)C(=O)[C@H](O)C3=C(C)[C@@H](OC(=O)[C@H](O)[C@@H](NC(=O)OC(C)(C)C)c4ccccc4)C[C@@](O)([C@@H](OC(=O)c4ccccc4)[C@H]21)C3(C)C` [DTX, docetaxel], the “association constant with MTs” value in the series with MTs is 3.09e+07 M⁻¹. In series [3] (MT, 37 °C), the ΔG is -9.2 ± 0.9 kcal/mol and the ΔH was -33.4 ± 6.5 kcal/mol. For the same compound, in series [3] (preformed MTs, read-out: associative binding constant K to preformed microtubules (converted)), the Kd is 182 nM. Further, the K in series [3] (association constant, MT, 37 °C) came to 5.5e+06 M⁻¹. The compound further had a K in the series with porcine brain tubulin of 8.1e+06 M⁻¹.
With [(DIP)2Ru(tatpp)]^2+, in the series on MCF10 and MCF7 cells, the “selectivity index (SI = IC50 MCF10/IC50 MCF7)” value is 71.
Consider `COC(=O)Nc1nc2ccc(C(=O)c3cccs3)cc2[nH]1` [NCZ, nocodazole], for which the IC50 is 1000 nM in the series with H358 [4], 200 nM with HUVEC, 480 nM in the series on MCF10 and 3200 nM in the series with MCF7. Moreover, the “Appearance of MTs in TEM images” value in [5] is given as “only small MT fragments or tubulin dimers are apparent”.
`CC(=O)O[C@H]1C(=O)[C@@]2(C)[C@H]([C@H](OC(=O)c3ccccc3)[C@]3(O)C[C@H](OC(=O)[C@H](O)[C@@H](NC(=O)c4ccccc4)c4ccccc4)C(C)=C1C3(C)C)[C@]1(OC(C)=O)CO[C@@H]1C[C@@H]2O` [PTX, paclitaxel]: the “association constant with MTs” value with MTs is 1.07e+07 M⁻¹. The “Amount of free tubulin in the cytosol (western blot)” value in series [6] was “substantially reduce the amount of free tubulin”. For the same compound, the 50% inhibitory concentration (IC50) with HUVEC was 0.82 nM; in the series with mouse fibroblast cells [8], 860 nM; with MCF10 it was 200 nM; in the series on H358 [10] it was 100 nM. In addition, the “time point at which changes in MT comet motion were apparent” value in series [7] is given as 30 min. For the same compound, the entries for the “population in G2/M” value with mouse fibroblast cells [9] (after 9 h) and with mouse fibroblast cells [9] (by 27 h) were ~50% and ~100%, respectively.

The values are drawn from publication PMC8133002, “Disruption of microtubule function in cultured human cells by a cytotoxic ruthenium(II) polypyridyl complex” (Chemical Science, 2019).
